# The supplement of paper PMC10307832
# Key:
# Assay in all cases: relative viability (nuclei count vs DMSO), 5 days (fraction); higher = more cells survive
# [1] = compound: O=C(CCCCCCC(=O)Nc1ccccc1)NO [Vorinostat] + CS(=O)(=O)N1CCN(Cc2cc3nc(-c4cccc5[nH]ncc45)nc(N4CCOCC4)c3s2)CC1 [Pictilisib] (partner 1 µM)
# Procedure, shortened: (§1)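 Medians of duplicate plates are given as relative viability. That measure is the nuclei count in treated wells divided by the count in vehicle wells. Counts were taken on 4× images of lung cancer cell lines in 1536-well plates, 5 days after pin-tool dosing the day after seeding with one drug alone or a fixed anchor-drug dose plus five library-drug doses (not always all listed) in √10 steps.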
# [2] = compound: O=C(CCCCCCC(=O)Nc1ccccc1)NO [Vorinostat] + CC(C)C[C@H](NC(=O)[C@H](Cc1ccccc1)NC(=O)c1cnccn1)B(O)O [Bortezomib] (partner 0.002 µM)
# Procedure, shortened: as §1
# [3] = compound: O=C(CCCCCCC(=O)Nc1ccccc1)NO [Vorinostat] + Cc1nc(NC(=O)N2CCC[C@H]2C(N)=O)sc1-c1ccnc(C(C)(C)C(F)(F)F)c1 [Alpelisib] (partner 2 µM)
# Procedure, shortened: as §1
# [4] = compound: O=C(CCCCCCC(=O)Nc1ccccc1)NO [Vorinostat] + C[C@]1(O)C[C@@H](c2nc(-c3ccc4ccc(-c5ccccc5)nc4c3)c3c(N)nccn32)C1 [Linsitinib] (partner 1 µM)
# Procedure, shortened: as §1
# [5] = compound: O=C(CCCCCCC(=O)Nc1ccccc1)NO [Vorinostat] + COc1cc2c(Oc3ccc(NC(=O)C4(C(=O)Nc5ccc(F)cc5)CC4)cc3F)ccnc2cc1OCCCN1CCOCC1 [Foretinib] (partner 0.25 µM)
# Procedure, shortened: as §1
# [6] = compound: O=C(CCCCCCC(=O)Nc1ccccc1)NO [Vorinostat] + CCNC(=O)c1noc(-c2cc(C(C)C)c(O)cc2O)c1-c1ccc(CN2CCOCC2)cc1 [Luminespib] (partner 0.01 µM)
# Procedure, shortened: as §1
# [7] = compound: O=C(CCCCCCC(=O)Nc1ccccc1)NO [Vorinostat] + Cc1cc(Nc2cc(N3CCN(C)CC3)nc(Sc3ccc(NC(=O)C4CC4)cc3)n2)n[nH]1 [Tozasertib] (partner 0.1 µM)
# Procedure, shortened: as §1
# [8] = compound: O=C(CCCCCCC(=O)Nc1ccccc1)NO [Vorinostat] + NC(=O)Nc1cc(-c2cccc(F)c2)sc1C(=O)N[C@H]1CCCNC1 [AZD7762] (partner 0.2 µM)
# Procedure, shortened: as §1
# [9] = compound: O=C(CCCCCCC(=O)Nc1ccccc1)NO [Vorinostat] + CC(=O)c1c(C)c2cnc(Nc3ccc(N4CCNCC4)cn3)nc2n(C2CCCC2)c1=O [Palbociclib] (partner 0.5 µM)
# Procedure, shortened: as §1
# [10] = compound: O=C(CCCCCCC(=O)Nc1ccccc1)NO [Vorinostat] + N=C(N)NC(=N)NCCc1ccccc1 [Phenformin] (partner 250 µM)
# Procedure, shortened: as §1
# [11] = compound: O=C(CCCCCCC(=O)Nc1ccccc1)NO [Vorinostat] + O=C(c1cc(Cc2n[nH]c(=O)c3ccccc23)ccc1F)N1CCN(C(=O)C2CC2)CC1 [Olaparib] (partner 8 µM)
# Procedure, shortened: as §1
# [12] = compound: O=C(CCCCCCC(=O)Nc1ccccc1)NO [Vorinostat] + Cc1nc(Nc2ncc(C(=O)Nc3c(C)cccc3Cl)s2)cc(N2CCN(CCO)CC2)n1 [Dasatinib] (partner 0.075 µM)
# Procedure, shortened: as §1
# [13] = compound: O=C(CCCCCCC(=O)Nc1ccccc1)NO [Vorinostat] + COc1cccc2cc(-c3nc([C@H]4CC[C@H](C(=O)O)CC4)n4ncnc(N)c34)[nH]c12 [OSI-027] (partner 0.5 µM)
# Procedure, shortened: as §1
# [14] = compound: O=C(CCCCCCC(=O)Nc1ccccc1)NO [Vorinostat] + CS(=O)(=O)CCNCc1ccc(-c2ccc3ncnc(Nc4ccc(OCc5cccc(F)c5)c(Cl)c4)c3c2)o1 [Lapatinib] (partner 2 µM)
# Procedure, shortened: as §1
# [15] = compound: O=C(CCCCCCC(=O)Nc1ccccc1)NO [Vorinostat] + C[C@@H](Oc1cc(-c2cnn(C3CCNCC3)c2)cnc1N)c1c(Cl)ccc(F)c1Cl [Crizotinib] (partner 1 µM)
# Procedure, shortened: as §1
# [16] = compound: O=C(CCCCCCC(=O)Nc1ccccc1)NO [Vorinostat] + Nc1ncn([C@H]2C[C@H](O)[C@@H](CO)O2)c(=O)n1 [Decitabine] (partner 2 µM)
# Procedure, shortened: as §1
# [17] = compound: O=C(CCCCCCC(=O)Nc1ccccc1)NO [Vorinostat]
# Procedure, shortened: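 For viability, nuclei in each treated well were divided by nuclei in vehicle wells and the median across plates was taken. Lung cancer cell lines in 1536-well plates were pinned with five library-drug doses (not always all listed) spaced by √10, cultured 5 days without medium change, and imaged at 4× after Hoechst staining, with plates passing only at control CV below 25% and at least one doubling.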
# [18] = compound: O=C(CCCCCCC(=O)Nc1ccccc1)NO [Vorinostat] + Nc1nc2[nH]cc(CCc3ccc(C(=O)N[C@@H](CCC(=O)O)C(=O)O)cc3)c2c(=O)[nH]1 [Pemetrexed] (partner 0.2 µM)
# Procedure, shortened: as §1
# [19] = compound: O=C(CCCCCCC(=O)Nc1ccccc1)NO [Vorinostat] + CC(=O)Nc1cccc(-n2c(=O)n(C3CC3)c(=O)c3c(Nc4ccc(I)cc4F)n(C)c(=O)c(C)c32)c1 [Trametinib] (partner 0.02 µM)
# Procedure, shortened: as §1
cell line,measurement,setting,value
ABC-1,relative viability,[1]; first compound 0.253 µM,0.981
same,relative viability,[1]; first compound 0.8 µM,0.509
same,relative viability,[1]; first compound 2.53 µM,0.168
same,relative viability,[1]; first compound 8 µM,0.118
same,relative viability,[2]; first compound 0.253 µM,0.297
same,relative viability,[2]; first compound 0.8 µM,0.281
same,relative viability,[2]; first compound 2.53 µM,0.175
same,relative viability,[2]; first compound 8 µM,0.194
same,relative viability,[3]; first compound 0.253 µM,1.02
same,relative viability,[3]; first compound 0.8 µM,0.636
same,relative viability,[3]; first compound 2.53 µM,0.354
same,relative viability,[3]; first compound 8 µM,0.161
same,relative viability,[4]; first compound 0.253 µM,1
same,relative viability,[4]; first compound 0.8 µM,0.505
same,relative viability,[4]; first compound 2.53 µM,0.331
same,relative viability,[4]; first compound 8 µM,0.106
same,relative viability,[5]; first compound 0.253 µM,1.07
same,relative viability,[5]; first compound 0.8 µM,0.834
same,relative viability,[5]; first compound 2.53 µM,0.358
same,relative viability,[5]; first compound 8 µM,0.102
same,relative viability,[6]; first compound 0.253 µM,1.19
same,relative viability,[6]; first compound 0.8 µM,0.284
same,relative viability,[6]; first compound 2.53 µM,0.239
same,relative viability,[6]; first compound 8 µM,0.187
same,relative viability,[7]; first compound 0.253 µM,0.203
same,relative viability,[7]; first compound 0.8 µM,0.198
same,relative viability,[7]; first compound 2.53 µM,0.18
same,relative viability,[7]; first compound 8 µM,0.112
same,relative viability,[8]; first compound 0.253 µM,0.875
same,relative viability,[8]; first compound 0.8 µM,0.587
same,relative viability,[8]; first compound 2.53 µM,0.309
same,relative viability,[8]; first compound 8 µM,0.125
same,relative viability,[9]; first compound 0.253 µM,0.696
same,relative viability,[9]; first compound 0.8 µM,0.563
same,relative viability,[9]; first compound 2.53 µM,0.344
same,relative viability,[9]; first compound 8 µM,0.137
same,relative viability,[10]; first compound 0.253 µM,0.254
same,relative viability,[10]; first compound 0.8 µM,0.307
same,relative viability,[10]; first compound 2.53 µM,0.183
same,relative viability,[10]; first compound 8 µM,0.156
same,relative viability,[11]; first compound 0.253 µM,1.02
same,relative viability,[11]; first compound 0.8 µM,1.3
same,relative viability,[11]; first compound 2.53 µM,0.78
same,relative viability,[11]; first compound 8 µM,0.196
same,relative viability,[12]; first compound 0.253 µM,0.531
same,relative viability,[12]; first compound 0.8 µM,0.41
same,relative viability,[12]; first compound 2.53 µM,0.221
same,relative viability,[12]; first compound 8 µM,0.131
same,relative viability,[13]; first compound 0.253 µM,0.491
same,relative viability,[13]; first compound 0.8 µM,0.352
same,relative viability,[13]; first compound 2.53 µM,0.159
same,relative viability,[13]; first compound 8 µM,0.102
same,relative viability,[14]; first compound 0.253 µM,1.14
same,relative viability,[14]; first compound 0.8 µM,1.12
same,relative viability,[14]; first compound 2.53 µM,1.13
same,relative viability,[14]; first compound 8 µM,0.27
same,relative viability,[15]; first compound 0.253 µM,1.11
same,relative viability,[15]; first compound 0.8 µM,0.383
same,relative viability,[15]; first compound 2.53 µM,0.131
same,relative viability,[15]; first compound 8 µM,0.0777
same,relative viability,[16]; first compound 0.253 µM,1.33
same,relative viability,[16]; first compound 0.8 µM,0.896
same,relative viability,[16]; first compound 2.53 µM,0.421
same,relative viability,[16]; first compound 8 µM,0.158
same,relative viability,[17]; 0.253 µM,1.16
same,relative viability,[17]; 0.8 µM,0.707
same,relative viability,"[17]; 1 µM, anchor plate",1.23
same,relative viability,[17]; 2.53 µM,0.32
same,relative viability,[17]; 8 µM,0.171
NCI-H2342,relative viability,[18]; first compound 0.253 µM,0.834
same,relative viability,[18]; first compound 0.8 µM,0.832
same,relative viability,[18]; first compound 2.53 µM,0.68
same,relative viability,[18]; first compound 8 µM,0.306
same,relative viability,[5]; first compound 0.253 µM,0.975
same,relative viability,[5]; first compound 0.8 µM,1.07
same,relative viability,[5]; first compound 2.53 µM,0.587
same,relative viability,[5]; first compound 8 µM,0.385
same,relative viability,[6]; first compound 0.253 µM,0.817
same,relative viability,[6]; first compound 0.8 µM,0.589
same,relative viability,[6]; first compound 2.53 µM,0.499
same,relative viability,[6]; first compound 8 µM,0.391
same,relative viability,[7]; first compound 0.253 µM,0.436
same,relative viability,[7]; first compound 0.8 µM,0.322
same,relative viability,[7]; first compound 2.53 µM,0.335
same,relative viability,[7]; first compound 8 µM,0.262
same,relative viability,[19]; first compound 0.253 µM,0.703
same,relative viability,[19]; first compound 0.8 µM,0.774
same,relative viability,[19]; first compound 2.53 µM,0.685
same,relative viability,[19]; first compound 8 µM,0.484
same,relative viability,[8]; first compound 0.253 µM,0.431
same,relative viability,[8]; first compound 0.8 µM,0.575
same,relative viability,[8]; first compound 2.53 µM,0.347
same,relative viability,[8]; first compound 8 µM,0.254
same,relative viability,[9]; first compound 0.253 µM,0.529
same,relative viability,[9]; first compound 0.8 µM,0.502
same,relative viability,[9]; first compound 2.53 µM,0.58
same,relative viability,[9]; first compound 8 µM,0.488
same,relative viability,[10]; first compound 0.253 µM,0.561
same,relative viability,[10]; first compound 0.8 µM,0.653
same,relative viability,[10]; first compound 2.53 µM,0.573
same,relative viability,[10]; first compound 8 µM,0.375
same,relative viability,[11]; first compound 0.253 µM,0.467
same,relative viability,[11]; first compound 0.8 µM,0.496
same,relative viability,[11]; first compound 2.53 µM,0.308
same,relative viability,[11]; first compound 8 µM,0.269
same,relative viability,[12]; first compound 0.253 µM,0.304
same,relative viability,[12]; first compound 0.8 µM,0.315
same,relative viability,[12]; first compound 2.53 µM,0.274
same,relative viability,[12]; first compound 8 µM,0.28
same,relative viability,[13]; first compound 0.253 µM,0.607
same,relative viability,[13]; first compound 0.8 µM,0.649
same,relative viability,[13]; first compound 2.53 µM,0.524
same,relative viability,[13]; first compound 8 µM,0.386
same,relative viability,[16]; first compound 0.253 µM,0.58
same,relative viability,[16]; first compound 0.8 µM,0.715
same,relative viability,[16]; first compound 2.53 µM,0.529
same,relative viability,[16]; first compound 8 µM,0.391
same,relative viability,[17]; 0.253 µM,0.936
same,relative viability,[17]; 0.8 µM,1.02
same,relative viability,"[17]; 1 µM, anchor plate",0.756
same,relative viability,[17]; 2.53 µM,0.756
same,relative viability,[17]; 8 µM,0.458
